Experimental data as given in PMC13600255 (Journal of the American Chemical Society, 2025).
Several values for one entry are separate records, joined by “and”; a condition that tells them apart may be missing. Identical values can stand only once. Entries after “also recorded” stand apart in the source; their conditions may differ. Like-named read-outs stand apart in the source and are kept apart here.

Experiments:
hVMAT2 [1] = molecular target: T1, hVMAT2 (Homo sapiens, UniProt Q05940); test: FFN206 fluorescent substrate uptake inhibition in hVMAT2-HEK cells; format: cell-based
hDAT = hDAT (Homo sapiens, UniProt Q01959); test: APP+ fluorescent substrate uptake inhibition in hDAT-HEK cells; format: cell-based; settings: read-out: IC50, hDAT
hOCT2 = molecular target: T2, hOCT2 (Homo sapiens, UniProt O15244); test: ASP+ fluorescent substrate uptake inhibition at OCT2; format: cell-based; settings: read-out: IC50, hOCT2; ASP+ fluorescent substrate
T2 sequence (O15244 1-555): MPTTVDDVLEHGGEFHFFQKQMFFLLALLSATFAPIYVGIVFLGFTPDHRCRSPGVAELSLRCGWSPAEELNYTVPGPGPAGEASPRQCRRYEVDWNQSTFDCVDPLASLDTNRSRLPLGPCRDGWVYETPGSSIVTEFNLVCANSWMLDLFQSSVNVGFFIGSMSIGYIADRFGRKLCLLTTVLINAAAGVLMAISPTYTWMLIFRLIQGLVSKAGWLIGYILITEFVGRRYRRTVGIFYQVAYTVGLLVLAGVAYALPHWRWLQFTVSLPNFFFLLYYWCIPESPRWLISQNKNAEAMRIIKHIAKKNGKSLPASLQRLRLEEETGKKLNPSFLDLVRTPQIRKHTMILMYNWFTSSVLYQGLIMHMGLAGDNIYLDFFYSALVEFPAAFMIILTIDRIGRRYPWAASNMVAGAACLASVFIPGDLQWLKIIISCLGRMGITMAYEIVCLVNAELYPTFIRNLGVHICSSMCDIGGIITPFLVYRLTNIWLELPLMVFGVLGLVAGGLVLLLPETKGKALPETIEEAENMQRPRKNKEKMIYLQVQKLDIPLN

[2] = system: other uptake 2 transporters (OCT1, OCT3, PMAT); test: Fluorescent substrate uptake inhibition at the other uptake 2 transporters; format: cell-based
rat SERT (rSERT) [3] = molecular target: T3, rat SERT (rSERT) (Rattus norvegicus, UniProt P31652); test: [3H]5-HT uptake inhibition in rat brain synaptosomes; format: biochemical; settings: rat brain synaptosomes
rat VMAT2 (rVMAT2) = rat VMAT2 (rVMAT2) (Rattus norvegicus, UniProt Q01827); test: [3H]5-HT uptake inhibition in rat brain synaptic vesicular fraction; format: biochemical; settings: read-out: Uptake Inhibition at VMAT2 IC50, [3H]5-HT (rVMAT2); rat brain synaptic vesicles
SERT [4] = molecular target: SERT (Rattus norvegicus, UniProt P31652); test: [3H]5-HT release from rat brain synaptosomes via SERT; format: biochemical; settings: rat brain synaptosomes; for [3H]5-HT Release % Emax via SERT / [3H]5-HT Release EC50 ± SD via SERT: n = 3; for [3H]5-HT Release EC50 ± SD via SERT: active releaser: EC50 < 10 μM and Emax > 30%
VMAT2 = VMAT2 (Rattus norvegicus, UniProt Q01827); test: [3H]5-HT release from rat brain synaptic vesicles via VMAT2; format: biochemical; settings: for [3H]5-HT Release % Emax via VMAT2: rat brain vesicular fraction, 5-HT control set as Emax = 100%
rVMAT2 = rVMAT2 (Rattus norvegicus, UniProt Q01827); test: [3H]DTBZ binding competition in rat brain synaptic vesicles
SERT [5] = molecular target: SERT (Mus musculus, UniProt Q60857); test: SERTlight two-photon imaging of SERT function in acute mouse brain slices; format: cell-based; settings: for Effect on SERTlight labeling of 5-HT axons: 2 μM for 30 minutes, SERTlight 10 μM, SNpr, DS, SSp2/3
mouse VMAT2 (mVMAT2) = mouse VMAT2 (mVMAT2) (Mus musculus, UniProt Q8BRU6); test: FFN200 two-photon imaging of VMAT2 function in acute mouse brain slices; format: cell-based; settings: for Effect on FFN200 uptake / punctate labeling: 2 μM for 30 minutes, FFN200 10 μM, dorsal striatum
mice [6] = test: Catalepsy bar test in mice; format: in vivo, mouse; settings: mice, s.c.
mice [7] = test: Open field locomotor activity test in mice; format: in vivo, mouse; settings: s.c.
mice [8] = test: Loss of righting reflex; format: in vivo, mouse; settings: high doses
[9] = Pharmacokinetics in mice, estimated free drug concentration in brain; format: in vivo, mouse
Lipophilicity = format: physicochemical; settings: noribogaine versus ibogamine
rat SERT (rSERT) [10] = molecular target: T3, rat SERT (rSERT); settings: cited from earlier work
hVMAT2 [11] = molecular target: T1, hVMAT2; settings: read-out: IC50, VMAT2 binding, cortex; human brain cortex; cited from earlier work
humans [12] = settings: top dose of 180 mg, p.o.; cited from earlier work
SERT [13] = settings: SERT-transfected cells; cited from earlier work
MAO A = molecular target: T4, MAO A (Homo sapiens, UniProt P21397); test: MAO A activity; format: biochemical; settings: Figure S16
T4 sequence (P21397 1-527): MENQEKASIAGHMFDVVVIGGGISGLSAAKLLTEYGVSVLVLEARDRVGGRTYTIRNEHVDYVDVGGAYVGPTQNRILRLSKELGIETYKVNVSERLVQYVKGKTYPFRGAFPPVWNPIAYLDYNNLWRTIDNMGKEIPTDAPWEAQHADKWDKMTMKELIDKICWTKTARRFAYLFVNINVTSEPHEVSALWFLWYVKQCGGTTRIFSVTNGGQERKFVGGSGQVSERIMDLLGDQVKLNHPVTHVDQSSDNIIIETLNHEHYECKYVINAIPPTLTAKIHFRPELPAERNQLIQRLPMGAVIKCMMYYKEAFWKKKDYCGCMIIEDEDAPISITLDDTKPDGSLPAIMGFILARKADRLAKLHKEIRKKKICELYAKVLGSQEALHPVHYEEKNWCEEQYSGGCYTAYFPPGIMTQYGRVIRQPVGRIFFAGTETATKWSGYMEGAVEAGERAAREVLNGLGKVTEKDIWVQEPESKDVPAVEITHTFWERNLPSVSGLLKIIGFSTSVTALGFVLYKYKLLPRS

humans [14] = settings: after a single treatment; cited from earlier work

Sequence of VMAT2 (Q01827 whole entry): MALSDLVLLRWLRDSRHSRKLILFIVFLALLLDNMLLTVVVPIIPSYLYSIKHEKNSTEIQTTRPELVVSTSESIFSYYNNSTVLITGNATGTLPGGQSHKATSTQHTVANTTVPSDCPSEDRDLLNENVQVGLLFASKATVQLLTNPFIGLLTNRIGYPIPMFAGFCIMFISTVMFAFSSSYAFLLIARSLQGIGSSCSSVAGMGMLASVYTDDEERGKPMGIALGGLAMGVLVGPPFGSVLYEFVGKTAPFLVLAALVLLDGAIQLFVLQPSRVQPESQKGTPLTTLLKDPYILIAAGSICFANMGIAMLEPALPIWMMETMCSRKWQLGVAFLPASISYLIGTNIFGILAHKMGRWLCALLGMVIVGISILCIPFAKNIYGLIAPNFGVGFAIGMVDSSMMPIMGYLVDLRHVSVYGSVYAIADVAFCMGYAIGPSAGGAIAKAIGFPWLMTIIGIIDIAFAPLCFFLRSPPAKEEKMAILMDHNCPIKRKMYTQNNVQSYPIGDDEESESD
T1 sequence (Q05940 whole entry): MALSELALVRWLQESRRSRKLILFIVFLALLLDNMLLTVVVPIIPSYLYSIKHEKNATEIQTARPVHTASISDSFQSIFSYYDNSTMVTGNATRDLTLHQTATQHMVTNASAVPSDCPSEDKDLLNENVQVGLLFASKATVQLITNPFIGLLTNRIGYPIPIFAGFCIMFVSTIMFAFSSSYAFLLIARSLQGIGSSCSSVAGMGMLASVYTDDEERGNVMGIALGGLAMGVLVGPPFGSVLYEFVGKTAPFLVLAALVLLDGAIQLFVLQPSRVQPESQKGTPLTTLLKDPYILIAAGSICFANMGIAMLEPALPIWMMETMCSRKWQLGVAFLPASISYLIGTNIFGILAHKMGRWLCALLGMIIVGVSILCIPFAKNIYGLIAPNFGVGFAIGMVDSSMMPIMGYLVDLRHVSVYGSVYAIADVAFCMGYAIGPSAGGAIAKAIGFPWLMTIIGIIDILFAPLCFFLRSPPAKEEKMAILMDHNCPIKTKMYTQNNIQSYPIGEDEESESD
T3 sequence (P31652 whole entry): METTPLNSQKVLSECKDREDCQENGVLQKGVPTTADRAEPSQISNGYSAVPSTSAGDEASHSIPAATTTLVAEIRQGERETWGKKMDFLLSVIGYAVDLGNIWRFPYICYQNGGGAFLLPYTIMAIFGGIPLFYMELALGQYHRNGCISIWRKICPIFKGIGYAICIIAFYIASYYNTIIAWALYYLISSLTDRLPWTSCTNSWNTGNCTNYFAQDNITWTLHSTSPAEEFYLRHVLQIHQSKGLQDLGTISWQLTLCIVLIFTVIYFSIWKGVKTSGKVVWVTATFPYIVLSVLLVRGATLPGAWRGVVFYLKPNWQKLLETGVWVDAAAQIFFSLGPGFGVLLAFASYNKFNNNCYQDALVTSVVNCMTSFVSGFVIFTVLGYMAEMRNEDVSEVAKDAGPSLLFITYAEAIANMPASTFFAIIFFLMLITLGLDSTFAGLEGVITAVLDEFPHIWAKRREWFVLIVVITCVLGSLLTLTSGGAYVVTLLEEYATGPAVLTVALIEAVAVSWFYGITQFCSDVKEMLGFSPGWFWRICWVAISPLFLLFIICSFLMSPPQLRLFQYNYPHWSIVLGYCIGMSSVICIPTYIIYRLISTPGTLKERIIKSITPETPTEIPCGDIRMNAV
Sequence of SERT (Rattus norvegicus, UniProt P31652) (P31652 whole entry): as above
Sequence of mouse VMAT2 (mVMAT2) (Q8BRU6 whole entry): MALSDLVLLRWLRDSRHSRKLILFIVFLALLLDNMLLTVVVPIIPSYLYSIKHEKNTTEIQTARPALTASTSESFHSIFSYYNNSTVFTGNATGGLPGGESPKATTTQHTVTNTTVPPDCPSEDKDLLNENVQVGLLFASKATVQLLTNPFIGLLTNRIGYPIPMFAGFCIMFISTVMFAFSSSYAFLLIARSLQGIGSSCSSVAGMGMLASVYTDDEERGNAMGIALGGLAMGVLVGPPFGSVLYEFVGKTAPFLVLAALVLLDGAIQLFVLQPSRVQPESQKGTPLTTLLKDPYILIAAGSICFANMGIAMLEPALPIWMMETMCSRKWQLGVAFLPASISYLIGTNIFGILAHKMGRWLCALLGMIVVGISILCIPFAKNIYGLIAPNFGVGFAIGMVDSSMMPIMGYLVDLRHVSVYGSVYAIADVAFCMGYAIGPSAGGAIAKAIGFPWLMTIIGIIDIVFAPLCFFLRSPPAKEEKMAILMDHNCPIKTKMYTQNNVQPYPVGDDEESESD
Sequence of SERT (Mus musculus, UniProt Q60857) (Q60857 whole entry): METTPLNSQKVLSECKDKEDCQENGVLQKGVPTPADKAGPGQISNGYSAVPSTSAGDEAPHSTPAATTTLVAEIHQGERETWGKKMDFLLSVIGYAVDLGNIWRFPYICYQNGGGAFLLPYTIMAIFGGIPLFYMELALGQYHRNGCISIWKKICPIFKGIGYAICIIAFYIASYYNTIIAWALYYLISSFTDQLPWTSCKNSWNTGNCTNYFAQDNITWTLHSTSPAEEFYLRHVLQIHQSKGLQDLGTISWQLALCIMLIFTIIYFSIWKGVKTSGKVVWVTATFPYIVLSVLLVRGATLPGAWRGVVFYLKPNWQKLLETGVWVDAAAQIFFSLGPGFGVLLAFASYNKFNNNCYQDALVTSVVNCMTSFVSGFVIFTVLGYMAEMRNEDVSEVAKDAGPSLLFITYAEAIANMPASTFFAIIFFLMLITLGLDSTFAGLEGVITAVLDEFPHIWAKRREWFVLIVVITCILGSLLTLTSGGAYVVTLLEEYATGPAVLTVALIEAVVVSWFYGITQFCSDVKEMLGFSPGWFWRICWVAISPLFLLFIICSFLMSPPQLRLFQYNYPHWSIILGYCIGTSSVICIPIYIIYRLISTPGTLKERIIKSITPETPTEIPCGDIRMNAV
Sequence of rVMAT2 (Q01827 whole entry): as the sequence (Q01827 whole entry) above
Sequence of rat VMAT2 (rVMAT2) (Q01827 whole entry): as above
Sequence of hDAT (Q01959 whole entry): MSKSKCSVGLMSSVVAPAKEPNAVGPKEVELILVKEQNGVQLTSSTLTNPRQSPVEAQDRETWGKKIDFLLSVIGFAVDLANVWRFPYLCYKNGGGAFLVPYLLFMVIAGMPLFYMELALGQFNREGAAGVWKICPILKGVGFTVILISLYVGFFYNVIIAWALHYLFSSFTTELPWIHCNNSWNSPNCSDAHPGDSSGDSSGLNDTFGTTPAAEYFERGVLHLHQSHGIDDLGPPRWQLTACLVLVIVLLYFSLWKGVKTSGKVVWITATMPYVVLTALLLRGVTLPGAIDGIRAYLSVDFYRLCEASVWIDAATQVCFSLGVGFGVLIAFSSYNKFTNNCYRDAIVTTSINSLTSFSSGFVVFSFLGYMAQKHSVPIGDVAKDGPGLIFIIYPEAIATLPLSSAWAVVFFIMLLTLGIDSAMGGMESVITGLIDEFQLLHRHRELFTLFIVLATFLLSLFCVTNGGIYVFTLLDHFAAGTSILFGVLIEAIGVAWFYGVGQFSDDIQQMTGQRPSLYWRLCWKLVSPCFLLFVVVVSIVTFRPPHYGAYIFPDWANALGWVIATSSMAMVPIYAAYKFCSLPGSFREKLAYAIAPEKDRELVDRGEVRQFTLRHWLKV

Molecule: CC[C@H]1C[C@H]2C[C@H]3c4[nH]c5ccc(O)cc5c4CCN(C2)[C@@H]13 [noribogaine]
- IC50 (hVMAT2 [1]; read-out: IC50, hVMAT2 (uptake inhibition, FFN206), hVMAT2-HEK cells, fluorescent substrate FFN206, n = 4): 0.57 µM
- IC50 (hDAT): 6.76 µM
- IC50 (hOCT2): 6.18 µM
- Inhibition at the other uptake 2 transporters examined [2]: no inhibition below 10 μM
- IC50 (rat SERT (rSERT) [3]; read-out: Uptake Inhibition at SERT IC50, [3H]5-HT (rSERT)): 0.326 µM
- IC50 (rat SERT (rSERT) [3]; read-out: [3H]5-HT Uptake Inhibition IC50 ± SD, SERT, n = 3): 0.326 ± 0.0476 µM
- IC50 (rat VMAT2 (rVMAT2)): 1.31 µM
- [3H]5-HT release from preloaded synaptosomes (qualitative) (SERT [4]): No [^3H]5-HT release was observed
- [3H]5-HT Release % Emax via SERT (SERT [4]): < 30%
- [3H]5-HT Release EC50 ± SD via SERT (SERT [4]): inactive
- [3H]5-HT Release % Emax via VMAT2 (VMAT2): 50%
- EC50 (VMAT2; read-out: [3H]5-HT Release EC50 ± SD via VMAT2): 6.48 µM
- [3H]DTBZ displacement (rVMAT2): < 20%
- IC50 (rVMAT2; read-out: IC50, rVMAT2 ([3H]DTBZ competition)): > 10 µM
- Effect on somatodendritic SERTlight labeling in dorsal raphe (SERT [5]; 2 μM): showed no effect
- Effect on SERTlight labeling of 5-HT axons (SERT [5]): ablated SERTlight probe uptake; also recorded: completely blocked the SERTlight signal; also recorded: completely inhibited the axonal SERT
- Effect on somatodendritic SERTlight labeling in dorsal raphe (SERT [5]; 10 μM): showed no effect
- Effect on somatodendritic SERTlight labeling in dorsal raphe (SERT [5]; 30 μM): no apparent effect
- Effect on somatodendritic SERTlight labeling in dorsal raphe (SERT [5]; 100 μM): clear inhibition
- Inhibitory potency on SERTlight staining in dorsal raphe, dose-response (SERT [5]; 10, 30, 50, and 100 μM): weak inhibitory potency
- Effect on FFN200 uptake / punctate labeling (mouse VMAT2 (mVMAT2)): strong inhibitory effects; also recorded: completely inhibited FFN200 uptake
- IC50 (mouse VMAT2 (mVMAT2); read-out: IC50 FFN200 uptake in acute mouse slices, number of puncta per image, dose-response): 0.16 µM
- Catalepsy in bar test (mice [6]; high doses 30, 50 and 80 mg/kg): did not induce catalepsy; also recorded: did not show any catalepsy
- Catalepsy in bar test (mice [6]; dose-response): does not result in catalepsy
- Locomotion in open field test (mice [7]; 30 mg/kg): strongly suppressed
- Locomotor activity / sedation in open field test (mice [7]; dose-response): diminished ambulatory behavior
- Loss of righting reflex (LORR) (mice [8]): did not observe a loss of righting reflex
- Cmax, estimated free brain concentration ([9]; mice, 10 mg/kg, s.c.): ~ 6.6 μM
- Cmax, estimated free drug in the brain ([9]; mice, 50 mg/kg, s.c.): 31 µM and > 20 µM
- Concentration of free drug in the brain over plasma ([9]; rodents (rats ref 11 and mice, Figure S11)): > 4 fold
- Less lipophilic than ibogamine by (Lipophilicity): 1.75 log D units
- IC50 (rat SERT (rSERT) [10]; read-out: IC50, rSERT reported previously in rat synaptosomes): 0.33 µM
- IC50 (hVMAT2 [11]): 5 µM
- Dose-limiting cardiac effect (humans [12]): cardiac QT interval prolongation
- Partial [3H]5-HT release Emax (SERT [13]): ~ 30%

Molecule: ibogaine
- Selectivity hVMAT2 over hSERT (hVMAT2 [1]; ratio of IC50 values, cell-based fluorometry): seven-fold more potent at VMAT2
- Inhibition at the other uptake 2 transporters examined [2]: no inhibition below 10 μM
- [3H]5-HT release from preloaded synaptosomes (qualitative) (SERT [4]): No [^3H]5-HT release was observed
- [3H]5-HT Release % Emax via SERT (SERT [4]): < 30%
- [3H]5-HT Release EC50 ± SD via SERT (SERT [4]): inactive
- Concentration at which [3H]5-HT release exceeds Emax of 30% (VMAT2; rat brain synaptic vesicles): > 10 µM
- [3H]5-HT Release % Emax via VMAT2 (VMAT2): < 30%
- Effect on SERTlight labeling of 5-HT axons (SERT [5]): did not alter probe uptake; also recorded: had no effect on SERTlight labeling
- Effect on FFN200 uptake / punctate labeling (mouse VMAT2 (mVMAT2)): strong inhibitory effects; also recorded: completely inhibited FFN200 uptake
- Activity at MAO A (MAO A): no activity
- Ratio of binding to uptake inhibitory constants at SERT (rat SERT (rSERT) [10]): ~ 1
- Remission (humans [14]): 80%
